Measured values: patent US5665745A, “Heterocyclic compounds and their preparation and use” (Eli Lilly and Company, priority 1995, dated 1997)
Read-outs that look alike come from different tables or passages of the source.

Key:
M2 -sites = details: background statement; cited from earlier work
M1 -sites = details: background statement; cited from earlier work
[1] = target: muscarinic receptor in the CNS; details: cited from earlier work
[2] = target: muscarinic acetylcholine receptors; assay: inhibition of specific binding of ^3 H-Oxotremorine-M (^3 H-Oxo); parameters: species or system rat (male Wistar; details: ^3 H-Oxotremorine 1.0 nM, rat cortex, 30 min. at 25° C.
Procedure, shortened: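 Rat cortex membranes (male Wistar) in 20 mM Hepes pH 7.4 incubated with 1.0 nM ^3H-Oxotremorine-M (final) and test compound for 30 min at 25 °C; arecoline defines non-specific binding. Bound radioactivity by filtration and scintillation counting; IC50 (nM) from a single concentration via Co/Cx mass-action formula, reflecting high- and medium-affinity sites.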

[3] = target: T1, muscarinic receptors (M1 -site, pirenzepine sensitive site) (Rattus norvegicus, UniProt P08482); assay: inhibition of ^3 HPRZ (pirenzepine, [N-methyl-^3 H]) binding to rat cerebral cortex membranes; parameters: species or system rat (male Wistar
T1 construct: from tissue; host or cells: cerebral cortex membranes of male Wistar rats
T1 sequence (P08482 1-460): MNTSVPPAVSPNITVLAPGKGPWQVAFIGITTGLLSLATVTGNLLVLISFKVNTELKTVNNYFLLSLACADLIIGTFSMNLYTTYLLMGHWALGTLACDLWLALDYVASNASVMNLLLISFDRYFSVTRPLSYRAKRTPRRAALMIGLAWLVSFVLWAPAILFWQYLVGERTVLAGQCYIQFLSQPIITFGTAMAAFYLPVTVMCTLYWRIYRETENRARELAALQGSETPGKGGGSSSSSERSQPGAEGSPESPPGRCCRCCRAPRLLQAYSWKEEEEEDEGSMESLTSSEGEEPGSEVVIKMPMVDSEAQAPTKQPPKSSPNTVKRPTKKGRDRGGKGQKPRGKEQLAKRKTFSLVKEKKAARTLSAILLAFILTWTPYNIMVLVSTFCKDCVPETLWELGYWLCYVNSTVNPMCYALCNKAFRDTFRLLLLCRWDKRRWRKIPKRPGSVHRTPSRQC
Procedure, shortened: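 Male Wistar rat cortex membranes in 20 mM Hepes pH 7.4 were incubated with 1.0 nM (final) [3H]pirenzepine for 60 min at 20° C; nonspecific binding was defined with 1 μg/mL atropine. Filtration and scintillation counting were used, and IC50 was calculated from a single concentration assuming mass-action kinetics.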

[4] = ^3 HPRZ 1.0 nM, rat cortex, 60 min. at 20° C., read-out: ^3 HPRZ IC50 (head from b208 on: Pir IC-50)

| Compound | IC50 [2] [nM] | IC50 [3] [nM] | IC50 [3, 4] [nM] | further results |
| --- | --- | --- | --- | --- |
| CN1CCN(CC(=O)N2c3ccccc3C(=O)Nc3cccnc32)CC1 [pirenzepine] |  |  |  | interaction with M2 -sites (M2 -sites): also interact with M2 -sites; selectivity for muscarinic receptor subtype (M1 -sites): selective for M1 -sites |
| C[N+](C)(C)CC#CCN1CCCC1=O [^3 H-Oxo] |  |  |  | Kd ([1]; first of three sites labeled (high affinity)): 1.8 nM; Kd ([1]; second of three sites labeled (medium affinity)): 20 nM; Kd ([1]; third of three sites labeled, read-out: affinity): 3000 nM |
| Fc1ccc(OCCSc2nsnc2OC2CN3CCC2CC3)cc1 (racemic) [Compound 207, (±)-3-(2-[4-fluorophenoxy]ethylthio)-4-(1-azabicyclo[2.2.2]octyl-3-oxy)-1,2,5-thiadiazole] | 2.4 | 6 |  |  |
| CCCCSc1nsnc1O[C@@H]1CNC[C@H]1O (relative stereo) [Compound 146, (±)-trans-3-Butylthio-4-(4-hydroxy-pyrollidin-3-oxy)-1,2,5-thiadiazole] | 775 |  | > 1000 |  |
| C#CCCOc1nsnc1O[C@@H]1CN2CCC[C@H]1C2 (relative stereo) [Compound 186, (±)-endo-3-(3-Butynyloxy)-4-(1-azabicyclo[3.2.1]octyl-6-oxy)-1,2,5-thiadiazole] | 0.59 |  | 2.8 |  |
| CCCCCSc1nsnc1O[C@@H]1CN2CCC1CC2 [Compound 16, (S)-3-Pentylthio-4-(1-azabicyclo[2.2.2]octyl-3-oxy)-1,2,5-thiadiazole] | 6.4 | 2 |  |  |
| c1ccc(OCCOc2nsnc2OC2CN3CCC2CC3)cc1 (racemic) [Compound 112, (±)-3-(2-Phenoxyethoxy)-4-(1-azabicyclo[2.2.2]octyl-3-oxy)-1,2,5-thiadiazole] | 16 |  | 153 |  |
| CCCCOc1nsnc1OCC[N+](C)(C)C [Compound 35, 3-Butyloxy-4-(2-(trimethylamino)ethoxy)-1,2,5-thiadiazole iodide] | 23 |  | 33 |  |
| CCCCOc1nsnc1OC1CCNC1 (racemic) [Compound 27, (±)-3-Butyloxy-4-(3-pyrrolidinyloxy)-1,2,5-thiadiazole] | 123 |  | 370 |  |
| CCCCSc1nsnc1OC1CCCN2CCCC12 (mixture of isomers) [Compound 142, (±)-cis-3-Butylthio-4-(1-azabicyclo[4.3.0]nonyl-5-oxy)-1,2,5-thiadiazole] | 38 |  | 74 |  |
| FC(F)(F)CCCOc1nsnc1OC1CC2CCC1NC2 (mixture of isomers) [Compound 160, (±)-exo-3-(4,4,4-Trifluorobutyloxy)-4-(2-azabicyclo[2.2.2]octyl-6-oxy)-1,2,5-thiadiazole] | 14 |  | 6.3 |  |
| c1ccc2c(OCCOc3nsnc3OC3CN4CCC3CC4)cccc2c1 (racemic) [Compound 127, (±)-3-(2-[1-Napthyloxy]ethoxy)-4-(1-azabicyclo [2.2.2]octyl-3-oxy)-1,2,5-thiadiazole] | 61 |  | 373 |  |
| O=C1SCCN1CCCSc1nsnc1OC1CN2CCC1CC2 (racemic) [Compound 61, (±)-3-(3-N-(2-Thiazolidonyl)propylthio)-4-(1-azabicyclo[2.2.2]octyl-3-oxy)1,2,5-thiadiazole] | 1.1 | 5.8 |  |  |
| CCCCOc1nsnc1OC1CN2CCC1CC2 (racemic) [Compound 8, (±)-3-Butyloxy-4-(1-azabicyclo[2.2.2]octyl-3-oxy)-1,2,5-thiadiazole] | 3.1 | 7.4 |  |  |
| CCCCSc1nsnc1OC1CC2CCC1NC2 (racemic) [Compound 65, (±)3-Butylthio-4-(exo-2-azabicyclo[2.2.2]oct-6-yloxy)-1,2,5-thiadiazole] | 2.3 |  | 0.72 |  |
| FC(F)(F)CCCOc1nsnc1O[C@@H]1CN2CCC[C@H]1C2 (relative stereo) [Compound 167, (±)-endo-3-(4,4,4-Trifluorobutoxy)-4-(1-azabicyclo[3.2.1]octyl-6-oxy)-1,2,5-thiadiazole] | 2.8 |  | 2 |  |
| Clc1nsnc1OC1CN2CCC1CC2 (racemic) [Compound 12, (±)-3-Chloro-4-(1-azabicyclo[2.2.2]octyl-3-oxy)-1,2,5-thiadiazole] | 73 | 86 |  |  |
| FC(F)(F)C(F)(F)C(F)(F)COc1nsnc1OC1CN2CCC1CC2 (racemic) [Compound 69, (±)3-(2,2,3,3,4,4,4-heptafluorobutyloxy)-4-[-3-(1-azabicyclo[2.2.2]octyloxy)]-1,2,5-thiadiazole] | 29 | 20 |  |  |
| c1ccc(CCCSc2nsnc2OC2CN3CCC2CC3)cc1 (racemic) [Compound 40, (±)-3-(3-Phenylpropylthio)-4-(1-azabicyclo[2.2.2]octyl-3-oxy)-1,2,5-thiadiazole] | 1.8 | 2.5 |  |  |
| C1CCC(CCCCOc2nsnc2O[C@@H]2CN3CCC[C@H]2C3)CC1 (relative stereo) [Compound 202, (±)-endo-3-(4-Cyclohexylbutoxy)-4-(1-azabicyclo[3.2.1]octyl-6-oxy)-1,2,5-thiadiazole] | 13 |  | 31 |  |
